Experimental data reported in US4335249A, “Herbicidal diphenyl ethers, sulfides, sulfoxides and sulfones” (Rohm and Haas Company, priority 1976, dated 1982).

Key:
Type in all cases: in vivo
[1] = tested on: tomato (Lycopersicon esculentum); assay: Postemergence herbicidal activity, tomato; conditions: Post, 2 lb/A; for pest or weed control at 2241.7 g/ha: Solanum lycopersicum, post-emergence, 336 h
Description: (§1) Using the procedure described below, compounds of the invention are evaluated for control of several of the following plant species:
(§2) The following est procedure is employed. Seeds of selected crops and weeds are planted in soil in flats. For preemergence tests, the flats are treated with the test compound immediately after the planting. For postemergence tests, the seeds are allowed to germinate, and after two weeks the flats are treated with the test compound. The compound to be evaluated is dissolved in acetone, diluted with water, and sprayed over the flats using a carrier volume equivalent to 50 gallons per acre at the rate of application (pounds per acre, lb/A.) specified in the tables. About two weeks after the application of the test compound, the state of growth of the plants is observed and the phytotoxic effect of the compound is evaluated. Tables III and IV give the average percent control achieved by test compounds in terms of the percent of the plants which are killed by the compounds.

[2] = tested on: yellow nutsedge (Cyperus esculentus); assay: Postemergence herbicidal activity, yellow nutsedge; conditions: 2 lb/A; for pest or weed control at 2241.7 g/ha: Cyperus, post-emergence, 336 h
Description: as §1, §2

[3] = tested on: tomato (Lycopersicon esculentum); assay: Preemergence herbicidal activity, tomato; conditions: Pre, 2 lb/A; for pest or weed control at 2241.7 g/ha: Solanum lycopersicum, pre-emergence, 336 h
Description: as §1, §2

[4] = tested on: morningglory (Ipomoca spp.); assay: Preemergence herbicidal activity, morningglory; conditions: 2 lb/A; for pest or weed control at 2241.7 g/ha: Ipomoea, pre-emergence, 336 h
Description: as §1, §2

[5] = tested on: downybrome (Bromus tectorum); assay: Preemergence herbicidal activity, downybrome; conditions: Pre, 2 lb/A; for pest or weed control at 2241.7 g/ha: Bromus tectorum, pre-emergence, 336 h
Description: as §1, §2

marigold (Tagetes spp.) [6] = assay: Preemergence herbicidal activity, marigold; conditions: 2 lb/A; for pest or weed control at 2241.7 g/ha: pre-emergence, 336 h
Description: as §1, §2

[7] = tested on: downybrome (Bromus tectorum); assay: Postemergence herbicidal activity, downybrome; conditions: Post, 2 lb/A; for pest or weed control at 2241.7 g/ha: Bromus tectorum, post-emergence, 336 h
Description: as §1, §2

[8] = tested on: barnyardgrass (Echinochloa crusgalli); assay: Preemergence herbicidal activity, barnyardgrass; conditions: Pre, 2 lb/A; for pest or weed control at 2241.7 g/ha: Echinochloa crus-galli, pre-emergence, 336 h
Description: as §1
(§3) The following est procedure is employed. Seeds of selected crops and weeds are planted in soil in flats. For preemergence tests, the flats are treated with the test compound immediately after the planting. For postemergence tests, the seeds are allowed to germinate, and after two weeks the flats are treated with the test compound. The compound to be evaluated is dissolved in acetone, diluted with water, and sprayed over the flats using a carrier volume equivalent to 50 gallons per acre at the rate of application (pounds per acre, lb/A.) specified in the tables.

[9] = tested on: morningglory (Ipomoca spp.); assay: Postemergence herbicidal activity, morningglory; conditions: 2 lb/A; for pest or weed control at 2241.7 g/ha: Ipomoea, post-emergence, 336 h
Description: as §1, §2

foxtail (Setaria spp.) [10] = assay: Preemergence herbicidal activity, foxtail; conditions: Pre, 2 lb/A; for pest or weed control at 2241.7 g/ha: Setaria, pre-emergence, 336 h
Description: as §1, §2

wild oats (Avena fatua) [11] = assay: Postemergence herbicidal activity, wild oats; conditions: Post, 2 lb/A; for pest or weed control at 2241.7 g/ha: Avena fatua, post-emergence, 336 h, read-out: % control, Wild oat
Description: as §1, §2

foxtail (Setaria spp.) [12] = assay: Postemergence herbicidal activity, foxtail; conditions: Post, 2 lb/A; for pest or weed control at 2241.7 g/ha: Setaria, post-emergence, 336 h
Description: as §1, §2

wild oats (Avena fatua) [13] = assay: Preemergence herbicidal activity, wild oats; conditions: Pre, 2 lb/A; for pest or weed control at 2241.7 g/ha: Avena fatua, pre-emergence, 336 h, read-out: % control, Wild oat
Description: as §1, §2

marigold (Tagetes spp.) [14] = assay: Postemergence herbicidal activity, marigold; conditions: 2 lb/A; for pest or weed control at 2241.7 g/ha: post-emergence, 336 h
Description: as §1, §2

[15] = tested on: cocklebur (Xanthium pensylvanicum); assay: Preemergence herbicidal activity, cocklebur; conditions: 2 lb/A; for pest or weed control at 2241.7 g/ha: Xanthium strumarium, pre-emergence, 336 h
Description: as §1, §2

[16] = tested on: yellow nutsedge (Cyperus esculentus); assay: Preemergence herbicidal activity, yellow nutsedge; conditions: 2 lb/A; for pest or weed control at 2241.7 g/ha: Cyperus, pre-emergence, 336 h
Description: as §1, §2

[17] = tested on: velvetleaf (Abutilon theophrasti); assay: Postemergence herbicidal activity, velvetleaf; conditions: 2 lb/A; for pest or weed control at 2241.7 g/ha: Abutilon theophrasti, post-emergence, 336 h
Description: as §1, §3

[18] = tested on: velvetleaf (Abutilon theophrasti); assay: Preemergence herbicidal activity, velvetleaf; conditions: Pre, 2 lb/A; for pest or weed control at 2241.7 g/ha: Abutilon theophrasti, pre-emergence, 336 h
Description: as §1, §2

[19] = tested on: cocklebur (Xanthium pensylvanicum); assay: Postemergence herbicidal activity, cocklebur; conditions: 2 lb/A; for pest or weed control at 2241.7 g/ha: Xanthium strumarium, post-emergence, 336 h
Description: as §1, §2

[20] = tested on: barnyardgrass (Echinochloa crusgalli); assay: Postemergence herbicidal activity, barnyardgrass; conditions: Post, 2 lb/A; for pest or weed control at 2241.7 g/ha: Echinochloa crus-galli, post-emergence, 336 h
Description: as §1, §3

| SMILES | pest or weed control at 2241.7 g/ha [1] [%] | pest or weed control at 2241.7 g/ha [2] [%] | pest or weed control at 2241.7 g/ha [3] [%] | pest or weed control at 2241.7 g/ha [4] [%] | pest or weed control at 2241.7 g/ha [5] [%] | pest or weed control at 2241.7 g/ha (marigold (Tagetes spp.) [6]) [%] | pest or weed control at 2241.7 g/ha [7] [%] | pest or weed control at 2241.7 g/ha [8] [%] | pest or weed control at 2241.7 g/ha [9] [%] | pest or weed control at 2241.7 g/ha (foxtail (Setaria spp.) [10]) [%] | pest or weed control at 2241.7 g/ha (wild oats (Avena fatua) [11]) [%] | pest or weed control at 2241.7 g/ha (foxtail (Setaria spp.) [12]) [%] | pest or weed control at 2241.7 g/ha (wild oats (Avena fatua) [13]) [%] | pest or weed control at 2241.7 g/ha (marigold (Tagetes spp.) [14]) [%] | pest or weed control at 2241.7 g/ha [15] [%] | pest or weed control at 2241.7 g/ha [16] [%] | pest or weed control at 2241.7 g/ha [17] [%] | pest or weed control at 2241.7 g/ha [18] [%] | pest or weed control at 2241.7 g/ha [19] [%] | pest or weed control at 2241.7 g/ha [20] [%] | also measured |
| --- | --- | --- | --- | --- | --- | --- | --- | --- | --- | --- | --- | --- | --- | --- | --- | --- | --- | --- | --- | --- | --- |
| CCOC(=O)C(C)Oc1ccc(Oc2ccc(C(F)(F)F)cc2)cc1 (stereo not shown) [Example 27] | 60 | 0 | 0 | 0 | 99 | 0 | 100 | 100 | 95 | 100 | 100 | 100 | 99 | 100 | 0 | 0 | 40 | 0 | 70 | 100 |  |
| CC(Oc1ccc(Oc2ccc(C(F)(F)F)cc2Cl)cc1)C(=O)O (stereo not shown) [Example 13] |  |  |  |  |  |  |  |  |  |  |  |  |  |  |  |  |  |  |  |  | % control, Tomato [1]: 0%; % control, Nutsedge ([2]; Post): 0%; % control, Tomato [3]: 0%; % control, Morningglory ([4]; Pre): 0%; % control, Downybrome [5]: 70%; % control, Marigold (marigold (Tagetes spp.) [6]; Pre): 0%; % control, Downybrome [7]: 20%; % control, Barnyardgrass [8]: 100%; % control, Morningglory ([9]; Post): 0%; % control, Foxtail (foxtail (Setaria spp.) [10]): 100%; % control, Wild oat (wild oats (Avena fatua) [11]): 60%; % control, Foxtail (foxtail (Setaria spp.) [12]): 90%; % control, Wild oat (wild oats (Avena fatua) [13]): 70%; % control, Marigold (marigold (Tagetes spp.) [14]; Post): 0%; % control, Cocklebur ([15]; Pre): 0%; % control, Nutsedge ([16]; Pre): 0%; % control, Velvetleaf ([17]; Post): 0%; % control, Velvetleaf [18]: 0%; % control, Cocklebur ([19]; Post): 0%; % control, Barnyardgrass [20]: 100% |
| CC(Oc1ccc(Oc2ccc(C(F)(F)F)cc2)cc1)C(=O)O (stereo not shown) [Example 29] | 30 | 0 | 0 | 0 | 99 | 0 | 80 | 100 | 0 | 100 | 100 | 100 | 95 | 30 | 0 | 0 | 0 | 0 | 0 | 100 |  |
| COCCOC(=O)C(C)Oc1ccc(Oc2ccc(C(F)(F)F)cc2Cl)cc1 (stereo not shown) [Example 25] | 95 | 40 | 0 | 0 | 95 | 0 | 80 | 100 | 40 | 100 | 100 | 100 | 70 | 30 | 0 | 30 | 60 | 0 | 20 | 100 |  |
| CCN(CC)C(=O)C(C)Oc1ccc(Oc2ccc(C(F)(F)F)cc2Cl)cc1 (stereo not shown) [Example 5] | 80 | 0 | 0 | 0 | 0 | 0 | 30 | 60 | 20 | 99 | 20 | 90 | 0 | 0 | 0 | 0 | 20 | 0 | 0 | 20 |  |
